Assay results from US20120035247A1, “RNA Interference Mediated Inhibition of Signal Transducer and Activator of Transcription 6 (STAT6) Gene Expression Using Short Interfering Nucleic Acid (siNA)” (Merck Sharp & Dohme Corp., priority 2009, published 2012).
[invAb] = inverted abasic unit; m = 2'-O-methyl; r = 2'-OH (RNA); f = 2'-fluoro

System: STAT6 protein
Experiment: STAT6 Western Blot after 6-well plate transfection of A549 cells
Type: cell-based, human
Details: STAT6 protein band density, 72 h post-transfection, average ±S.D., n = 3
Experimental: A549 cells were plated in 6-well plates at final counts of 70,000 cells/well in 2 ml of complete growth media. Transfection was performed using 2.5 uL of RNAiMax per well. Final concentration of siNAs was 30 nM (screen) and 30, 0.3, and 0.003 nM (dose response study). Protein lysates were harvested 24, 48, and 72 hours post-transfection (screen) and 72 hours post-transfection (dose response study). Protein lysates were prepared using Cell Extraction Buffer (Invitrogen, cat# FNN0011) according to manufacturer's instructions. Protein concentration was measured using a Bradford Quick Start Kit (Bio-Rad, cat#500-0205).
The protein source for the Western Blot experiments were from transfection of A549 cells in a 6 well plate, as described above.
Protein samples were diluted 1:1 in 2× Laemmli buffer with 5% 13-mercapto-ethanol and incubated at 95° C. for 5 minutes. 40-50 ug of protein was loaded in each lane of 10% Tris-HCl gel. One lane was designated for MagicMark Protein Standard (Invitrogen # LC5602). The gel was run at 100V for approximately 2 hours. Protein was transferred to a PVDF membrane at 100V for 60 minutes. Once the transfer was finished, the membrane was blocked in 1% Casein in PBS (BioRad Cat#161-0783) for 1 hour on a plate rocker at room temperature followed by the overnight incubation at 4° C. with mouse monoclonal anti-STAT6 primary antibody (BD Biosciences, cat#611291) diluted 1:500 in 1% Casein. On the next day, the blot was washed 4×5 minutes in PBST solution and incubated for 30 minutes at room temperature with goat anti-mouse secondary antibody (Pierce Biotechnology, cat#3 31430) diluted 1:20,000 in 1% Casein. Then, the blot was washed 4×5 minutes with PBST and incubated for 1 minute with ECL Western Blotting Substrate (Pierce Biotechnology, Cat#32106). The bands were visualized on the Bio-Rad VersaDoc Imager.
The protein bands were quantified by computing their density which is defined by the ratio between the total intensity of all pixels and the area of the rectangle drawn around each band (intensity/mm^2). The density was calculated by the BioRad software.
The level of protein was quantified using the Bio-Rad VersaDoc Imager according to the protocols of that piece of equipment. A pixel count was performed in each lane using an area of identical size. Each sample was then compared to the appropriate control treated sample and converted to a percent of protein remaining compared to control.
The effects of lead siNAs on STATE protein level were compared to the effects of the universal control using a two tail Student's T-test to obtain a P value. P<0.05 was considered significant.
The siNAs and control were tested were tested at doses of 30 nM, […]. Blots were then probed with a-STAT6 and α-tubulin antibodies. All samples were harvested 72 hours post-transfection. The ratios of the treatments were then compared to the ratio of the control group using an t-test assuming unequal variances.

Substance	Density (Intensity/mm^2), 3 pM, 72 h	Density (Intensity/mm^2), 300 pM, 72 h	Density (Intensity/mm^2), 30 nM, 72 h
30008-DC: STAT6 siNA duplex; sense SEQ ID NO: 80, antisense SEQ ID NO: 81; target CUGCUCUGCUCAGAUGUGA, site 2549 (sense CUGCUCUGCUCAGAUGUGATT; antisense UCACAUCUGAGCAGAGCAGUU; sense: DNA at AGT, 2'-fluoro at CU, [invAb] at 5' end, 3' end, backbone not given here; antisense: sugars from the 5' end rrrfmfffmmmfmmmmfmmmm, backbone not given here) [STAT6 siNA duplex; target CUGCUCUGCUCAGAUGUGA, site 2549]	58808.1 ± 5023.9 Intensity/mm^2	8356.8 ± 2186.6 Intensity/mm^2	4254 ± 1579.4 Intensity/mm^2
29997-DC: STAT6 siNA duplex; sense SEQ ID NO: 58, antisense SEQ ID NO: 59; target CUACCAUGGUGCCUUCUUA, site 2262 (sense CUACCAUGGUGCCUUCUUATT; antisense UAAGAAGGCACCAUGGUAGUU; sense: DNA at AGT, 2'-fluoro at CU, [invAb] at 5' end, 3' end, backbone not given here; antisense: sugars from the 5' end rrrmmmmmfmffmfmmfmmmm, backbone not given here) [STAT6 siNA duplex; target CUACCAUGGUGCCUUCUUA, site 2262]	49839.8 ± 2352.8 Intensity/mm^2	5732.4 ± 1189.0 Intensity/mm^2	3203.8 ± 1309.6 Intensity/mm^2
29990-DC: STAT6 siNA duplex; sense SEQ ID NO: 44, antisense SEQ ID NO: 45; target GUGAAAGCCUGGUGGACAU, site 954 (sense GUGAAAGCCUGGUGGACAUTT; antisense AUGUCCACCAGGCUUUCACUU; sense: DNA at AGT, 2'-fluoro at CU, [invAb] at 5' end, 3' end, backbone not given here; antisense: sugars from the 5' end rrrfffmffmmmfffffmfmm, backbone not given here) [STAT6 siNA duplex; target GUGAAAGCCUGGUGGACAU, site 954]	50078.4 ± 5978.2 Intensity/mm^2	6192.2 ± 714.5 Intensity/mm^2	1134.6 ± 362.7 Intensity/mm^2
